Measurements published in paper PMC10778198, “First-in-Human Dose-Escalation Study of the Novel Oral Depsipeptide Class I-Targeting HDAC Inhibitor Bocodepsin (OKI-179) in Patients with Advanced Solid Tumors” (Cancers, 2023).
Marks after values point to notes of the source that are not given here.

Test system: patients with advanced solid tumors
Assay: phase I dose escalation: safety, DLT, MTD, RP2D (CTCAE v. 5)
Assay type: in vivo
Conditions: for maximum tolerated dose (MTD): oral once daily
Excerpt: Subsequent dosing cohorts were enrolled using a standard 3 + 3 design.
If any patient in any cohort of three patients developed a DLT during cycle 1, an additional three patients were recruited to expand the cohort to up to six evaluable patients. If two or more patients in any expanded cohort developed a DLT, this dose was considered non-tolerated, and dose escalation was discontinued. The MTD was defined as the highest dose level for which no more than one of six patients experienced a DLT.
Patients were continuously evaluated for adverse events throughout the study using the Common Terminology Criteria of Adverse Events (CTCAE v. 5). The patients underwent a clinical history and physical examination, an ECOG PS, a complete blood count (CBCs), chemistry, coagulation studies, urinalysis, a serum pregnancy test (as applicable), a triplicate ECG, an ophthalmology examination, and baseline tumor assessment at screening. During cycle 1, weekly history and physical examination, CBC, chemistry, coagulation parameters, urinalysis, and triplicate ECGs were performed; in subsequent cycles, weekly labs were limited to a CBC. Repeat ophthalmology examinations were performed at cycle 3, day 1, and at the end of treatment. Repeat tumor assessment was performed every 2 cycles (6 weeks) in accordance with RECIST 1.1.

[1] = All Continuous Patients (N=8), G3
[2] = All Continuous Patients (N=8), G4

CC(C)[C@H](N)C(=O)SCC/C=C/[C@@H]1CC(=O)NCc2nc(cs2)C(=O)NC(C)(C)C(=O)N[C@@H](C(C)C)C(=O)O1 [OKI-179, Bocodepsin]
0 patients: DLTs (Cohort 1, 30 mg, Schedule 1 (4:3), 1 patient) | DLTs (Cohort 2, 60 mg, Schedule 1 (4:3), 2 patients) | DLTs (Cohort 3, 90 mg, Schedule 1 (4:3), 1 patient) | DLTs (Cohort 4, 120 mg, Schedule 1 (4:3), 1 patient) | DLTs (Cohort 5, 150 mg, Schedule 1 (4:3), 1 patient) | DLTs (Cohort 6, 180 mg, Schedule 1 (4:3), 1 patient) | DLTs (Cohort 7, 210 mg, Schedule 1 (4:3), 1 patient) | DLTs (Cohort 8, 270 mg, Schedule 1 (4:3), 3 patients) | DLTs (Cohort 9, 350 mg, Schedule 1 (4:3), 3 patients) | DLTs (Cohort 12, 200 mg, Schedule 2 (continuous), 6 patients)
2 * patients: DLTs (Cohort 11, 300 mg, Schedule 2 (continuous), 2 patients, grade 2 and grade 4 thrombocytopenia)
5.9%: grade > 3 treatment-related TEAE: anorexia (all patients (n = 34)) | grade > 3 treatment-related TEAE: decreased platelet count (all patients (n = 34)) | grade > 3 treatment-related TEAE: prolonged QT interval on ECG (all patients (n = 34))
47.1%: TEAE: Fatigue (all patients (n = 34))
1 (50) N (%): TEAE: Constipation (continuous, 300 mg (N=2), G1) | TEAE: Diarrhea (continuous, 300 mg (N=2), G1) | TEAE: Headache (continuous, 300 mg (N=2), G1) | TEAE: Anemia (continuous, 300 mg (N=2), G2) | TEAE: Decreased appetite (continuous, 300 mg (N=2), G3) | TEAE: Fatigue (continuous, 300 mg (N=2), G3)
1 (17) N (%): TEAE: Abdominal pain (continuous, 200 mg (N=6), G1) | TEAE: Decreased appetite (continuous, 200 mg (N=6), G1) | TEAE: Dyspepsia (continuous, 200 mg (N=6), G1) | TEAE: ECG QT prolonged (continuous, 200 mg (N=6), G1) | TEAE: Fatigue (continuous, 200 mg (N=6), G1) | TEAE: Pain (continuous, 200 mg (N=6), G1) | TEAE: Platelet count decreased (continuous, 200 mg (N=6), G1) | TEAE: Abdominal pain (continuous, 200 mg (N=6), G2) | TEAE: Anemia (continuous, 200 mg (N=6), G2) | TEAE: Dyspepsia (continuous, 200 mg (N=6), G2) | TEAE: ECG QT prolonged (continuous, 200 mg (N=6), G2) | TEAE: Pain (continuous, 200 mg (N=6), G2) | TEAE: Platelet count decreased (continuous, 200 mg (N=6), G2)
2 (33) N (%): TEAE: Constipation (continuous, 200 mg (N=6), G1) | TEAE: Diarrhea (continuous, 200 mg (N=6), G1) | TEAE: Headache (continuous, 200 mg (N=6), G1) | TEAE: Nausea (continuous, 200 mg (N=6), G1) | TEAE: Fatigue (continuous, 200 mg (N=6), G2) | TEAE: Nausea (continuous, 200 mg (N=6), G2)
300 mg: recommended phase 2 dose (RP2D) (daily on a 4:3 schedule)
four: patients with grade 1 or 2 QT prolongation (whole study)
2 (25) N (%): TEAE: Platelet count decreased [2]
2 (100) N (%): TEAE: Nausea (continuous, 300 mg (N=2), G1) | TEAE: Platelet count decreased (continuous, 300 mg (N=2), G4)
15: number of grade > 3 treatment-related TEAEs (all patients (n = 34))
70.6%: TEAE: Nausea (all patients (n = 34))
3 (50) N (%): TEAE: Constipation (continuous, 200 mg (N=6), G2)
50%: TEAE: Fatigue (continuous dosing cohort) | TEAE: platelet count decrease (continuous dosing cohort)
0 N (%): TEAE: Headache [1] | TEAE: Nausea [1] | TEAE: Pain [1] | TEAE: Platelet count decreased [1] | TEAE: Abdominal pain [2] | TEAE: Anemia [2] | TEAE: Constipation [2] | TEAE: Decreased appetite [2] | TEAE: Diarrhea [2] | TEAE: Dyspepsia [2] | TEAE: ECG QT prolonged [2] | TEAE: Fatigue [2] | TEAE: Headache [2] | TEAE: Nausea [2] | TEAE: Pain [2] | TEAE: Anemia (continuous, 200 mg (N=6), G1) | TEAE: Decreased appetite (continuous, 200 mg (N=6), G2) | TEAE: Diarrhea (continuous, 200 mg (N=6), G2) | TEAE: Headache (continuous, 200 mg (N=6), G2) | TEAE: Abdominal pain (continuous, 200 mg (N=6), G3) | TEAE: Anemia (continuous, 200 mg (N=6), G3) | TEAE: Constipation (continuous, 200 mg (N=6), G3) | TEAE: Decreased appetite (continuous, 200 mg (N=6), G3) | TEAE: Diarrhea (continuous, 200 mg (N=6), G3) | TEAE: Dyspepsia (continuous, 200 mg (N=6), G3) | TEAE: ECG QT prolonged (continuous, 200 mg (N=6), G3) | TEAE: Fatigue (continuous, 200 mg (N=6), G3) | TEAE: Headache (continuous, 200 mg (N=6), G3) | TEAE: Nausea (continuous, 200 mg (N=6), G3) | TEAE: Pain (continuous, 200 mg (N=6), G3) | TEAE: Platelet count decreased (continuous, 200 mg (N=6), G3) | TEAE: Abdominal pain (continuous, 200 mg (N=6), G4) | TEAE: Anemia (continuous, 200 mg (N=6), G4) | TEAE: Constipation (continuous, 200 mg (N=6), G4) | TEAE: Decreased appetite (continuous, 200 mg (N=6), G4) | TEAE: Diarrhea (continuous, 200 mg (N=6), G4) | TEAE: Dyspepsia (continuous, 200 mg (N=6), G4) | TEAE: ECG QT prolonged (continuous, 200 mg (N=6), G4) | TEAE: Fatigue (continuous, 200 mg (N=6), G4) | TEAE: Headache (continuous, 200 mg (N=6), G4) | TEAE: Nausea (continuous, 200 mg (N=6), G4) | TEAE: Pain (continuous, 200 mg (N=6), G4) | TEAE: Platelet count decreased (continuous, 200 mg (N=6), G4) | TEAE: Abdominal pain (continuous, 300 mg (N=2), G1) | TEAE: Anemia (continuous, 300 mg (N=2), G1) | TEAE: Decreased appetite (continuous, 300 mg (N=2), G1) | TEAE: Dyspepsia (continuous, 300 mg (N=2), G1) | TEAE: ECG QT prolonged (continuous, 300 mg (N=2), G1) | TEAE: Fatigue (continuous, 300 mg (N=2), G1) | TEAE: Pain (continuous, 300 mg (N=2), G1) | TEAE: Platelet count decreased (continuous, 300 mg (N=2), G1) | TEAE: Abdominal pain (continuous, 300 mg (N=2), G2) | TEAE: Constipation (continuous, 300 mg (N=2), G2) | TEAE: Decreased appetite (continuous, 300 mg (N=2), G2) | TEAE: Diarrhea (continuous, 300 mg (N=2), G2) | TEAE: Dyspepsia (continuous, 300 mg (N=2), G2) | TEAE: ECG QT prolonged (continuous, 300 mg (N=2), G2) | TEAE: Fatigue (continuous, 300 mg (N=2), G2) | TEAE: Headache (continuous, 300 mg (N=2), G2) | TEAE: Nausea (continuous, 300 mg (N=2), G2) | TEAE: Pain (continuous, 300 mg (N=2), G2) | TEAE: Platelet count decreased (continuous, 300 mg (N=2), G2) | TEAE: Abdominal pain (continuous, 300 mg (N=2), G3) | TEAE: Anemia (continuous, 300 mg (N=2), G3) | TEAE: Constipation (continuous, 300 mg (N=2), G3) | TEAE: Diarrhea (continuous, 300 mg (N=2), G3) | TEAE: Dyspepsia (continuous, 300 mg (N=2), G3) | TEAE: ECG QT prolonged (continuous, 300 mg (N=2), G3) | TEAE: Headache (continuous, 300 mg (N=2), G3) | TEAE: Nausea (continuous, 300 mg (N=2), G3) | TEAE: Pain (continuous, 300 mg (N=2), G3) | TEAE: Platelet count decreased (continuous, 300 mg (N=2), G3) | TEAE: Abdominal pain (continuous, 300 mg (N=2), G4) | TEAE: Anemia (continuous, 300 mg (N=2), G4) | TEAE: Constipation (continuous, 300 mg (N=2), G4) | TEAE: Decreased appetite (continuous, 300 mg (N=2), G4) | TEAE: Diarrhea (continuous, 300 mg (N=2), G4) | TEAE: Dyspepsia (continuous, 300 mg (N=2), G4) | TEAE: ECG QT prolonged (continuous, 300 mg (N=2), G4) | TEAE: Fatigue (continuous, 300 mg (N=2), G4) | TEAE: Headache (continuous, 300 mg (N=2), G4) | TEAE: Nausea (continuous, 300 mg (N=2), G4) | TEAE: Pain (continuous, 300 mg (N=2), G4)
11.8%: grade > 3 treatment-related TEAE: anemia (all patients (n = 34))
200 mg: maximum tolerated dose (MTD) (continuous dosing)
38%: TEAE: Diarrhea (continuous dosing cohort) | TEAE: Headache (continuous dosing cohort)
three: patients with grade 3 QT prolongation (whole study)
18 (52.9%) patients (%): patients with Grade > 3 TEAEs (all patients (n = 34))
35.3%: TEAE: Anemia (all patients (n = 34))
32.4%: TEAE: anorexia (all patients (n = 34))
25%: grade 4 thrombocytopenia events (continuous dosing cohort, two events, in the 300 mg cohort)
33 (97.1%) patients (%): patients with a treatment-related TEAE (all patients (n = 34))
nine: patients with grade > 3 treatment-related TEAEs (all patients (n = 34))
41.2%: TEAE: decreased platelet count (thrombocytopenia) (all patients (n = 34))
450 mg: maximum tolerated dose (MTD) (4:3 intermittent dosing)
14 (41.2%) patients (%): patients with serious adverse events (SAEs) (all patients (n = 34), one treatment-related (grade 3 nausea))
75%: TEAE: Constipation (continuous dosing cohort) | TEAE: Nausea (continuous dosing cohort)
Eleven: patients with treatment-related TEAEs leading to dose holding or reduction (all patients (n = 34))
